# Tests used:
# [1] = Drug metabolism in Mdr1a knockout Sprague-Dawley rat urine at 5 mg/kg, iv administered for 30 mins; assay type: ADME, organism-based; parameters: dose 5 mg/kg, dosed compound name LY2090314, route intravenous; details: in vivo, 0.5 h
# [2] = tested on: Canis familiaris; assay: Volume of distribution at steady state in beagle dog assessed as total radioactivity at 5 mg/kg, iv administered for 30 mins; assay type: ADME, organism-based, Canis lupus familiaris; parameters: dose 5 mg/kg, dosed compound name [14C]LY2090314, route intravenous; details: in vivo, 0.5 h
# [3] = Volume of distribution at steady state in cancer patient at 20 mg for 60 mins treated 2/1 cycle/day; assay type: ADME, organism-based; parameters: dosed compound name LY2090314; details: human, in vivo, read-out: Vdss
# [4] = Volume of distribution at steady state in cancer patient at 60 mg for 60 mins treated 1/1 cycle/day; assay type: ADME, organism-based; parameters: dosed compound name LY2090314; details: human, in vivo, read-out: Vdss
# [5] = Drug recovery in bile duct-intact Sprague-Dawley rat assessed as radioactivity in feces during 0 to 24 hrs at 5 mg/kg, iv for 30 mins; assay type: ADME, organism-based; parameters: dose 5 mg/kg, dosed compound name [14C]LY2090314, route intravenous; details: in vivo
# [6] = tested on: Canis familiaris; assay: Cmax in beagle dog assessed as total radioactivity at 5 mg/kg, iv administered for 30 mins; assay type: ADME, organism-based, Canis lupus familiaris; parameters: dose 5 mg/kg, dosed compound name [14C]LY2090314, route intravenous; details: in vivo, 0.5 h
# [7] = Volume of distribution at steady state in cancer patient at 10 mg for 60 mins treated 1/1 cycle/day; assay type: ADME, organism-based; parameters: dosed compound name LY2090314; details: human, in vivo, read-out: Vdss
# [8] = Tmax in cancer patient at 10 mg for 60 mins treated 2/1 cycle/day; assay type: ADME, organism-based; parameters: dosed compound name LY2090314; details: human, in vivo
# [9] = Tmax in cancer patient at 80 mg for 60 mins treated 1/8 cycle/day; assay type: ADME, organism-based; parameters: dosed compound name LY2090314; details: human, in vivo
# [10] = Drug recovery in bile duct-cannulated Sprague-Dawley rat assessed as radioactivity in feces during 0 to 24 hrs at 5 mg/kg, iv administered for 30 mins relative to dosed radioactivity; assay type: ADME, organism-based; parameters: dose 5 mg/kg, dosed compound name [14C]LY2090314, route intravenous; details: in vivo
# [11] = Drug metabolism in Mrp2 knockout Sprague-Dawley rat urine at 5 mg/kg, iv administered for 30 mins; assay type: ADME, organism-based; parameters: dose 5 mg/kg, dosed compound name LY2090314, route intravenous; details: in vivo, 0.5 h
# [12] = Drug metabolism in Mrp2 knockout Sprague-Dawley rat bile at 5 mg/kg, iv administered for 30 mins; assay type: ADME, organism-based; parameters: dose 5 mg/kg, dosed compound name LY2090314, route intravenous; details: in vivo, 0.5 h
# [13] = Cmax in cancer patient at 120 mg for 60 mins treated 1/8 cycle/day; assay type: ADME, organism-based; parameters: dose 120 mg, dosed compound name LY2090314; details: human, in vivo
# [14] = Drug recovery in beagle dog urine at 5 mg/kg, iv administered for 30 mins during 0 to 24 hrs time interval by radio analysis; assay type: ADME, organism-based, Canis lupus familiaris; parameters: dose 5 mg/kg, dosed compound name [14C]LY2090314, route intravenous; details: in vivo
# [15] = tested on: Rattus norvegicus; assay: Drug recovery in Sprague-Dawley rat cage at 5 mg/kg, iv administered for 30 mins during 0 to 24 hrs time interval by radio analysis; assay type: ADME, organism-based; parameters: dose 5 mg/kg, dosed compound name [14C]LY2090314, route intravenous; details: in vivo
# [16] = Drug recovery in bile duct-cannulated Sprague-Dawley rat assessed as radioactivity in bile during 0 to 12 hrs at 5 mg/kg, iv for 30 mins; assay type: ADME, organism-based; parameters: dose 5 mg/kg, dosed compound name [14C]LY2090314, route intravenous; details: in vivo
# [17] = Tmax in cancer patient at 80 mg for 60 mins treated 1/1 cycle/day; assay type: ADME, organism-based; parameters: dosed compound name LY2090314; details: human, in vivo
# [18] = Plasma protein binding in beagle dog; assay type: ADME, cell-free, Canis lupus familiaris; parameters: dosed compound name [14C]LY2090314; details: read-out: PPB
# [19] = Drug recovery in bile duct-cannulated Sprague-Dawley rat cage/carcass at 5 mg/kg, iv administered for 30 mins during 0 to 168 hrs time interval by radio analysis; assay type: ADME, organism-based; parameters: dose 5 mg/kg, dosed compound name [14C]LY2090314, route intravenous; details: in vivo
# [20] = Cmax in cancer patient at 20 mg for 60 mins treated 2/1 cycle/day; assay type: ADME, organism-based; parameters: dose 20 mg, dosed compound name LY2090314; details: human, in vivo
# [21] = AUC (0 to infinity) in Sprague-Dawley rat at 5 mg/kg, iv administered for 30 mins; assay type: ADME, organism-based; parameters: time infinity, dose 5 mg/kg, dosed compound name [14C]LY2090314, route intravenous; details: plasma
# [22] = Cmax in cancer patient at 10 mg for 60 mins treated 1/1 cycle/day; assay type: ADME, organism-based; parameters: dose 10 mg, dosed compound name LY2090314; details: human, in vivo
# [23] = tested on: Plasma; assay: Plasma concentration in beagle dog at 5 mg/kg, iv administered for 30 mins; assay type: ADME, organism-based, Canis lupus familiaris; parameters: dose 5 mg/kg, dosed compound name [14C]LY2090314, route intravenous; details: in vivo, 0.5 h
# [24] = Volume of distribution at steady state in cancer patient at 20 mg for 60 mins treated 1/1 cycle/day; assay type: ADME, organism-based; parameters: dosed compound name LY2090314; details: human, in vivo, read-out: Vdss
# [25] = AUC (0 to infinity) in cancer patient at 10 mg for 60 mins treated 2/1 cycle/day; assay type: ADME, organism-based; parameters: dose 10 mg, time infinity, dosed compound name LY2090314; details: human, plasma
# [26] = Drug recovery in bile duct-cannulated Sprague-Dawley rat bile at 5 mg/kg, iv administered for 30 mins during 0 to 168 hrs time interval by radio analysis; assay type: ADME, organism-based; parameters: dose 5 mg/kg, dosed compound name [14C]LY2090314, route intravenous; details: in vivo
# [27] = tested on: Plasma; assay: Plasma concentration in Sprague-Dawley rat at 5 mg/kg, iv administered for 30 mins; assay type: ADME, organism-based; parameters: dose 5 mg/kg, dosed compound name [14C]LY2090314, route intravenous; details: in vivo, 0.5 h
# [28] = Clearance in cancer patient at 60 mg for 60 mins treated 1/1 cycle/day; assay type: ADME, organism-based; parameters: dosed compound name LY2090314; details: human, in vivo
# [29] = Cmax in cancer patient at 10 mg for 60 mins treated 2/1 cycle/day; assay type: ADME, organism-based; parameters: dose 10 mg, dosed compound name LY2090314; details: human, in vivo
# [30] = Drug metabolism in Bcrp knockout Sprague-Dawley rat bile at 5 mg/kg, iv administered for 30 mins; assay type: ADME, organism-based; parameters: dose 5 mg/kg, dosed compound name LY2090314, route intravenous; details: in vivo, 0.5 h
# [31] = AUC (0 to infinity) in cancer patient at 80 mg for 60 mins treated 1/1 cycle/day; assay type: ADME, organism-based; parameters: dose 80 mg, time infinity, dosed compound name LY2090314; details: human, plasma
# [32] = Drug metabolism in Bcrp knockout Sprague-Dawley rat urine at 5 mg/kg, iv administered for 30 mins; assay type: ADME, organism-based; parameters: dose 5 mg/kg, dosed compound name LY2090314, route intravenous; details: in vivo, 0.5 h
# [33] = Clearance in cancer patient at 40 mg for 60 mins treated 1/1 cycle/day; assay type: ADME, organism-based; parameters: dosed compound name LY2090314; details: human, in vivo
# [34] = AUC (0 to infinity) in beagle dog at 5 mg/kg, iv administered for 30 mins; assay type: ADME, organism-based, Canis lupus familiaris; parameters: time infinity, dose 5 mg/kg, dosed compound name [14C]LY2090314, route intravenous; details: plasma
# [35] = Volume of distribution at steady state in beagle dog at 5 mg/kg, iv administered for 30 mins; assay type: ADME, organism-based, Canis lupus familiaris; parameters: dose 5 mg/kg, dosed compound name [14C]LY2090314, route intravenous; details: in vivo, read-out: Vdss
# [36] = tested on: Canis familiaris; assay: Total drug recovery in beagle dog at 5 mg/kg, iv administered for 30 mins during 0 to 24 hrs time interval by radio analysis; assay type: ADME, organism-based, Canis lupus familiaris; parameters: dose 5 mg/kg, dosed compound name [14C]LY2090314, route intravenous; details: in vivo
# [37] = Clearance in cancer patient kidney at 80 to 120 mg for 60 mins; assay type: ADME, organism-based; parameters: dosed compound name LY2090314; details: human, in vivo
# [38] = AUC (0 to infinity) in cancer patient at 20 mg for 60 mins treated 2/1 cycle/day; assay type: ADME, organism-based; parameters: dose 20 mg, time infinity, dosed compound name LY2090314; details: human, plasma
# [39] = Tmax in cancer patient at 20 mg for 60 mins treated 2/1 cycle/day; assay type: ADME, organism-based; parameters: dosed compound name LY2090314; details: human, in vivo
# [40] = Half life in cancer patient at 10 mg for 60 mins treated 2/1 cycle/day; assay type: ADME, organism-based; parameters: dosed compound name LY2090314; details: human, in vivo
# [41] = tested on: Rattus norvegicus; assay: Total drug recovery in Sprague-Dawley rat at 5 mg/kg, iv administered for 30 mins during 0 to 24 hrs time interval by radio analysis; assay type: ADME, organism-based; parameters: dose 5 mg/kg, dosed compound name [14C]LY2090314, route intravenous; details: in vivo
# [42] = Half life in cancer patient at 40 mg for 60 mins treated 1/8 cycle/day; assay type: ADME, organism-based; parameters: dosed compound name LY2090314; details: human, in vivo
# [43] = Drug recovery in bile duct-cannulated Sprague-Dawley rat assessed as radioactivity in bile during 0 to 12 hrs at 5 mg/kg, iv administered for 30 mins relative to dosed radioactivity; assay type: ADME, organism-based; parameters: dose 5 mg/kg, dosed compound name [14C]LY2090314, route intravenous; details: in vivo
# [44] = Drug recovery in Sprague-Dawley rat feces at 5 mg/kg, iv administered for 30 mins during 0 to 24 hrs time interval by radio analysis; assay type: ADME, organism-based; parameters: dose 5 mg/kg, dosed compound name [14C]LY2090314, route intravenous; details: in vivo
# [45] = AUC (0 to infinity) in cancer patient at 10 mg for 60 mins treated 1/1 cycle/day; assay type: ADME, organism-based; parameters: dose 10 mg, time infinity, dosed compound name LY2090314; details: human, plasma
# [46] = Drug recovery in Sprague-Dawley rat urine at 5 mg/kg, iv administered for 30 mins during 0 to 24 hrs time interval by radio analysis; assay type: ADME, organism-based; parameters: dose 5 mg/kg, dosed compound name [14C]LY2090314, route intravenous; details: in vivo
structure (smiles),measurement,setting,value
O=C1NC(=O)C(c2cnc3ccccn23)=C1c1cn2c3c(cc(F)cc13)CN(C(=O)N1CCCCC1)CC2 [LY-2090314],Drug metabolism,[1],metabolite_detected
same,Vdss,[2],9.84 L/kg
same,Vd,[3],71.5 L
same,Vd,[4],76.8 L
same,Radiolabel recovery,[5],2.43%
same,Cmax,[6],7240 ng/mL
same,Vd,[7],89.7 L
same,Tmax,[8],55.2 min
same,Tmax,[9],58.8 min
same,Radiolabel recovery,[10],6.75%
same,Drug metabolism,[11],metabolite_detected
same,Drug metabolism,[12],metabolite_detected
same,Cmax,[13],768 ng/mL
same,Radiolabel recovery,[14],19.8%
same,Radiolabel recovery,[15],0.07%
same,Radiolabel recovery,[16],1.78%
same,Tmax,[17],60 min
same,fraction unbound,[18],0.01
same,Radiolabel recovery,[19],0.31%
same,Cmax,[20],271 ng/mL
same,AUC(0-inf),[21],1260 ng·h/mL
same,Cmax,[22],122 ng/mL
same,Compound recovery,[23],21.4%
same,Vd,[24],77.5 L
same,AUC(0-inf),[25],192 ng·h/mL
same,Radiolabel recovery,[26],85.8%
same,Compound recovery,[27],70.4%
same,clearance,[28],617 mL/min
same,Cmax,[29],106 ng/mL
same,Drug metabolism,[30],metabolite_detected
same,AUC(0-inf),[31],1870 ng·h/mL
same,Drug metabolism,[32],metabolite_detected
same,clearance,[33],688 mL/min
same,AUC(0-inf),[34],3230 ng·h/mL
same,Vd,[35],0.915 L/kg
same,Radiolabel recovery,[36],61.5%
same,CL renal at 1 h,[37],14.2 mL/min
same,AUC(0-inf),[38],404 ng·h/mL
same,Tmax,[39],45 min
same,half-life,[40],146 min
same,Radiolabel recovery,[41],92.6%
same,half-life,[42],161 min
same,Radiolabel recovery,[43],85.2%
same,Radiolabel recovery,[44],91.8%
same,AUC(0-inf),[45],216 ng·h/mL
same,Radiolabel recovery,[46],0.73%

# From ChEMBL document CHEMBL3526091, “Pharmacokinetics, metabolism, and excretion of the glycogen synthase kinase-3 inhibitor LY2090314 in rats, dogs, and humans: a case study in rapid clearance by extensive metabolism with low circulating metabolite exposure” (Drug Metab Dispos, 2013)
